One series deals with MDMs. In words: Cytotoxicity with respect to MDMs (neutral red). It counts as cell-based, human. As for the experimental part:
These tests are carried out systematically in parallel with the evaluation of the antiviral activity. In view of the oxidation/reduction capacity of the molecules tested, the test with the tetrazolium salt, which measures the activity of mitochondrial dehydrogenases, cannot be used.
Neutral red (NR) is a vital dye which makes it possible to measure the viability of adherent cells, such as MDMs. 600 μl of culture supernatant are removed and replaced with 400 μl of an NR solution (0.001% m/v in phosphate buffer, PBS, Boehringer Mannheim), filtered at 0.45 μm. The cells were incubated for 1 h at 37° C. and are subsequently washed (2×1 ml of PBS). The cells are then lysed at −20° C. with 200 μl of a 50% ethanol mixture comprising 1% of glacial acetic acid. The OD is measured twice with 100 μl of solution using a spectrophotometer.

Series [1] deals with total glutathione (GSH+GSSG). Put plainly: Total intracellular glutathione in quiescent PBMCs. The format is cell-based, human. The following applies: quiescent PBMCs; for effect on intracellular level of glutathione (in words): 24 h treatment.
In a further series the test system is GSH. In words: Intracellular GSH in MDMs infected with HIV-1/Ba-L. The format is cell-based, human. The conditions noted are these: conditions of stress. As for the experimental part:
The intracellular GSH was assayed by means of the assay kit sold by Cayman. This method for assaying glutathione is an adaptation of that described by O. W. Griffith et al. (1980).
The compound I-152 and its derivatives are prepared extemporaneously by being dissolved in dimethyl sulfoxide (DMSO) at the concentration of 100 mM. They are subsequently stored at −20° C. after having been diluted 10 fold in phosphate buffer (PBS).

The target of series [2] is T1, RT of the HIV-1 LAI isolate (Human immunodeficiency virus type 1 group M subtype B, UniProt P03367).
T1 construct: The RT is released by lysis of the viral pellet in 20 μl of NTE-Triton; endogenous in cells; host or cells: Virions pelleted by ultracentrifugation from supernatants of infected cell cultures
Put plainly: Acellular test of the enzymatic activity of RT. The conditions noted are these: for decrease of RT activity: 500 μM. It counts as biochemical. As for the experimental part: (§1) The viral replication is measured by assaying the RT activity in the culture supernatants according to the technique described by F. Rey et al. (Biochem. Biophys. Res. Comm., 1984, 121, 126-133). The radioactivity incorporated during the extension of the complementary strand of a poly-rA synthetic matrix in the presence of an oligo-dT12-18 primer and of a radiolabeled substrate, [^3H-methyl]thymidine-5′-triphosphate ([^3H]TPP), makes it possible to assay the enzymatic activity of RT. 400 μl of supernatant are ultracentrifuged at 360 000 g for 5 min. The RT is released by lysis of the viral pellet in 20 μl of NTE-Triton (100 mM NaCl, 10 mM Tris, 1 mM EDTA, 0.1% Triton X-100). These 20 μl are subsequently incubated with 40 μl of the following reaction mixture: 62.5 mM Tris, pH 7.8; 25 mM KCl; 6.25 mM MgCl2; 1.25 mM dithiothreitol (DTT); 2.5×10^−3 ODU oligo-dT12-18 and poly-rA, 5.55×10^−3 TBq {^3H]TTP. After one hour at 37° C., the enzymatic reaction is halted and the newly synthesized strands are precipitated for 20 min at 4° C. by the addition of 1 ml of sodium pyrophosphate (NaPP), of 50 μl of yeast DNA (0.1 mg/ml in 5% trichluoroacetic acid (TCA)), and of 4 ml of 20% TCA. The mixture is filtered using a cellulose acetate membrane (Millipore) which retains the radiolabeled poly-dT chains. The filter is washed using 20 ml of 5% TCA and the residual water is removed by addition of 25 μl of 70% ethanol. The filter is dried in an oven for 10 minutes at 80° C. and is then introduced into vials containing 8 ml of liquid scintillant. The β radioactivity is quantified by means of a scintillation counter (Packard Bell). The results are expressed in pM of [^3H]-TMP incorporated/h/ml of supernatant or, more simply, in cpm/h/ml.
The I-152 molecule is composed of NAC and MEA, which are capable of inhibiting the activity of RT (A. Bergamini et al., J. Clin. Invest., 1994, 93, 2251-2257). For this reason, the inhibiting capacity of I-152 with respect to the RT activity was measured using an acellular test. This test was carried out according to the protocol described above (§ 3.3.3.1.). In the reaction mixture, only the 20 μl of water are replaced by 20 μl of a concentration of I-152 or of the reference compounds. Heparin, known for inhibiting the activity of RT and of the other DNA polymerases, is used as positive control for inhibition.

Series [3] has as its system HIV-1 LAI. Put plainly: Antiviral activity in quiescent or PHA-P activated PBMCs infected with HIV-1 LAI. It counts as cell-based. The following applies: quiescent and activated PBMCs, at known cytotoxic doses (so in the source). As for the experimental part: (§2) For some experiments, the PBMCs and the PBLs are activated for 48 h with 1 μg/ml of a mitogen, PHA-P (Difco Laboratories). The PBMCs and the PBLs are cultured in medium A (quiescent) or B (activated). The cells are cultured at 37° C. in an atmosphere saturated with moisture under 5% of CO2. The culture supernatants are removed and the culture media are replaced every three or four days. At each renewal of the culture media, the cell viability is evaluated by coloring with trypan blue or by microscopic observation.
(§3) The MDMs were infected with the reference isolate with macrophage tropism, HIV-1/Ba-L. The PBMCs and the PBLs were infected with the reference isolate with lymphocyte tropism HIV-1 LAI. The viral stock were formed by amplifying these strains in vitro using umbilical blood mononucleated cells (UBM(s) preactivated with 1 μg/ml of PHA-P and cultured in medium A supplemented by 20 IU/ml of IL-2. In order to remove the soluble factors, such as cytokines, the culture supernatants were ultracentrifuged at 360 000 g for 5 min, and the pellets were resuspended in RPMI 1640. The viral stocks thus formed were subsequently titred using PBMCs activated with PHA-P. The TCID50s (50% Tissue Culture Infectious Dose) were calculated using the Kärber formula.
(§4) A million MDMs were infected with 10 000 TCID50s of the HIV-1/Ba-L strain. This amount of virus corresponds to a multiplicity of infection (m.o.i.) equal to 0.01. The excess of virus is removed 24 h after by washing with cells using RPMI 1640. The PBLs and the PBMCs were infected with 10 000 TCID50s of the HIV-1 LAI strain (moi=0.01). The cells were washed at the end of the second day of infection.
as §1
The PBMCs, quiescent or activated by PHA-P, were infected by the reference strain with lymphocyte tropism HIV-1 LAI. All the culturings were carried out in parallel and the drugs were maintained throughout the culturing.

Series [4] deals with HIV-1 LAI. Put plainly: Antiviral activity in quiescent or PHA-P activated PBLs infected with HIV-1 LAI. The conditions noted are these: quiescent PBLs or PBLs activated by PHA-P. It counts as cell-based. The method, then:
as §2, §3
A million MDMs were infected with 10 000 TCID50s of the HIV-1/Ba-L strain. This amount of virus corresponds to a multiplicity of infection (m.o.i.) equal to 0.01. The excess of virus is removed 24 h after by washing with cells using RPMI 1640. […]
The viral replication is measured by assaying the RT activity in the culture supernatants according to the technique described by F. Rey et al. (Biochem. Biophys. Res. Comm., 1984, 121, 126-133). The radioactivity incorporated during the extension of the complementary strand of a poly-rA synthetic matrix in the presence of an oligo-dT12-18 primer and of a radiolabeled substrate, [^3H-methyl]thymidine-5′-triphosphate ([^3H]TPP), makes it possible to assay the enzymatic activity of RT. […] The β radioactivity is quantified by means of a scintillation counter (Packard Bell). […]

The next series has as its system HIV-1/Ba-L. In words: Antiviral activity in MDM cultures infected with HIV-1/Ba-L (RT activity in culture supernatants). It counts as cell-based. The conditions noted are these: for EC50: Human immunodeficiency virus 1, BAL, MDMs infected with 10 000 TCID50s HIV-1/Ba-L (m.o.i. 0.01), read-out: inhibiting concentration (50% effective dose); for antiviral activity (in words): second series, compounds dissolved in DMSO then diluted, MDMs, HIV-1/Ba-L. As for the experimental part:
A million monocytes in 1 ml of culture medium A are distributed in each well of a 48 well plate (Becton-Dickinson). The monocytes are left to differentiate into macrophages for 7 days. The macrophages thus differentiated are maintained in culture in medium A.
as §3, §4, §1
The 50% effective doses (ED50) are calculated from the cumulative RT activities using the software “Dose-effects analysis with microcomputers” developed by J. Chou & T. C. Chou.

The subject of another series is HIV provirus. In words: Quantification of proviral DNAs by PCR (integration of the provirus within the cell genome). It counts as cell-based. The following applies: 10 μM. As for the experimental part: I-152 is composed of MEA and NAC, which are capable of interacting with the early phases of the biological cycle of HIV. It is therefore capable of decreasing the integration of the provirus into the cell genome. In order to measure these effects, the proviral DNAs were quantified by PCR. The cells were lysed using 1 ml of the following lysis solution: 10 mM Tris HCl pH 8; 100 mM of EDTA pH 8; 0.5% of sodium dodecyl sulfate (SDS); 20 μg/ml of DNAse-free bovine pancreatic RNAse. 200 μg/ml of proteinase K are subsequently added to this suspension. The DNAs were subsequently extracted using 1 ml of an ice-cold saturated phenol solution and 1 ml of a […] solution.
The viral DNAs were then amplified by means of specific primers of the gag gene (SK01/SK39) and of a standard range of the 8E5 line, a chronically infected line, the cells of which carry a proviral copy. The β-globin gene was used as reporter gene in order to make sure of the quality of the DNA extraction.

Another series relates to PBLs. The following applies: PBL cultures.
In the next series the test system is PBMCs. The conditions noted are these: PBMC cultures.

Consider seven molecules from patent US6979747B2, “Antioxidants, preparation processes and their uses” (Centre National de la Recherche Scientifique (CNRS), priority 1999, dated 2005).

Regarding `CC(=O)N[C@@H](CS)C(=O)O` [NAC, N-Acetyl-L-cysteine], the cytotoxicity in the series with MDMs (MDMs, 15 mM) is 70%; in the series with MDMs (MDMs, 40 mM) it was 91%. For the same molecule, the “cytotoxicity at antiviral doses (in words)” value in the series with MDMs (MDMs) is recorded as “cytotoxic”. For the same molecule, the “effect on intracellular level of glutathione (in words)” value in series [1] is given as “better at increasing the intracellular level of glutathione”. Besides, the “intracellular concentration of total glutathione” value in series [1] (dose 15 mM) was ~2.64 ± 0.13 µM. Also, in the series with GSH, the “regeneration of GSH under conditions of stress (in words)” value is “ineffective”. Besides, the “inhibiting activity with respect to RT (in words)” value in [2] (acellular system) is on record as “do not exhibit an inhibiting activity”. In the series with HIV-1 LAI [3], the “inhibition of viral replication (in words)” value is given as “do not inhibit viral replication”. Also, the “antiviral activity (in words)” value in the series with HIV-1 LAI [4] is reported as “do not have or have a very slight antiviral activity”. The EC50 in the series on HIV-1/Ba-L amounted to 9.4 mM.

In the case of heparin, in series [2] (1 mg/ml, acellular), the “inhibition of RT activity (in words)” value is reported as “completely inhibits”.

With `CC(=O)N[C@@H](CSC(C)=O)C(=O)NCCSC(C)=O` [I-176, N-(N,S-bisacetyl-L-cysteinyl)-S-acetylcysteamine], the “cytotoxicity (in words)” value in the series with MDMs (FIG. 12, at the dose tested) was “cytotoxic”. For the same molecule, in the series with MDMs (MDMs, 150 μM, second series in DMSO), the “toxicity (in words)” value is “slightly toxic”.

Turning to `Cc1cn([C@H]2C[C@H](N=[N+]=[N-])[C@@H](CO)O2)c(=O)[nH]c1=O` [AZT, 3′-azido-3′-deoxythymidine, reference compound], in the series with HIV provirus, the “inhibition of integration of the provirus (in words)” value was “perfect”.

Regarding `CC(=O)N[C@@H](CSC(=O)C(C)(C)C)C(=O)NCCSC(C)=O` [I-178, N-(N-acetyl-S-pivaloyl-L-cysteinyl)-S-acetylcysteamine], in the series with HIV-1/Ba-L, the “antiviral activity (in words)” value is reported as “activities similar to that of I-152”.

Regarding `CC(=O)N[C@@H](CSC(=O)C(C)C)C(=O)NCCSC(C)=O` [I-177, N-(N-acetyl-S-isobutyryl-L-cysteinyl)-S-acetylcysteamine], the “antiviral activity (in words)” value in the series with HIV-1/Ba-L is on record as “activities similar to that of I-152”.

Take `NCCS` [MEA, cysteamine, reference compound]: in the series with MDMs (MDMs, 500 μM), the “decrease of the viability of MDMs” value amounted to 65%. In the series on MDMs (MDMs), the “cytotoxicity at antiviral doses (in words)” value is listed as “cytotoxic”. For the same molecule, the “dose from which cytotoxic” value with PBLs and in the series with PBMCs was 500 µM in each case. Besides, the “intracellular glutathione at high concentration (in words)” value in series [1] (500 μM) is “decrease”. In addition, the “effect on intracellular level of glutathione (in words)” value in [1] is on record as “does not significantly alter the intracellular level of glutathione”. In addition, the “regeneration of GSH under conditions of stress (in words)” value in the series with GSH was “ineffective”. The “decrease of RT activity” value in series [2] (exp. 1) turned out to be 29±1%; in series [2] (exp. 2) it was 48±4%. The “inhibition of viral replication (in words)” value in the series on HIV-1 LAI [3] is given as “do not inhibit viral replication”. Further, in the series on HIV-1 LAI [4], the “antiviral activity (in words)” value is on record as “do not have or have a very slight antiviral activity”. In addition, in the series with HIV-1/Ba-L, the EC50 is 0.3 mM.
